# Experimental data taken from US11800867B2, “Methods of repelling biting arthropods, reducing pathogen spread and treating arthropod infestation” (priority 2016, dated 2023).
# Values joined by “and” are separate entries in the source; they are usually repeats but may differ in a detail not shown here. Equal values may be shown once.
# Tests used:
# Experiment in all cases: Treated filter paper knockdown (KD) and mortality trial (Example 4)
# Type in all cases: in vivo
# [1] = tested on: Southern house mosquito (Culex)
# Experimental: (§1) A laboratory trial was conducted to assess the efficacy of nootkatone applied to filter paper against aphids (Schizaphis gramium), dust mites (Dermatophagoides sp.), termites (Reticulitermes flavipes), deer ticks (Ixodes scapularis), biting midges (Culicoides sp.), fire ants (Solenopsis invicta), and mosquitoes (Aedes aegypti and Culex), in terms of knockdown (KD) and mortality. One concentration (1% in ethanol) of nootkatone was assessed for most species, but three concentrations (0.25%, 0.5%, and 1% in ethanol) were assessed for mosquitoes. A negative control group, consisting of filter paper treated with ethanol, was also assessed for comparison purposes for each species.
# (§2) Test systems were introduced to treated filter paper, allowed to dry, and then introduced into treatment chamber, where treated arthropods were monitored at intervals up to 72 hours. If 100% mortality was obtained prior to 72 hours, the individual study was halted.
# (§3) Midges and mosquitoes—5 replicates of 10 insects per treatment were tested. Inverted 10 ounce (295 ml) clear plastic cups with a 0.5 inch (1.27 cm) hole burned into the center of the bottom, and with the sides coated with Fluon® was used at the treatment containers. The bottoms of the containers consisted of Petri dish lids 3.54 inches (9.0 cm) in diameter lined with a treated filter paper circle the same diameter. The cup was placed over the filter paper in the lid and both were secured in place using 2 rubber bands. The insects were introduced through the hole in the cup, and a plastic disc was placed over the opening to prevent escapes.
# (§4) Readings were discontinued if treated mortality reaches […], or control mortality exceeds 20%.
# [2] = tested on: Yellow Fever mosquito (Aedes aegypti)
# Experimental: as §1, §2, §3, §4
# [3] = tested on: biting midges (Culicoides sp.); details: Nootkatone 1% in ethanol on filter paper
# Experimental: as §1, §2, §3, §4
# [4] = Nootkatone 0.25% in ethanol on filter paper, 30 minutes post introduction
# [5] = Nootkatone 0.25% in ethanol on filter paper, 1 hour post introduction
# [6] = Nootkatone 0.25% in ethanol on filter paper, 4 hours post introduction
# [7] = Nootkatone 0.25% in ethanol on filter paper, 8 hours post introduction
# [8] = Nootkatone 0.25% in ethanol on filter paper, 24 hours post introduction
# [9] = Nootkatone 0.25% in ethanol on filter paper, 48 hours post introduction
# [10] = Nootkatone 0.25% in ethanol on filter paper, 72 hours post introduction
# [11] = Nootkatone 0.5% in ethanol on filter paper, 30 minutes post introduction
# [12] = Nootkatone 0.5% in ethanol on filter paper, 1 hour post introduction
# [13] = Nootkatone 0.5% in ethanol on filter paper, 4 hours post introduction
# [14] = Nootkatone 0.5% in ethanol on filter paper, 8 hours post introduction
# [15] = Nootkatone 0.5% in ethanol on filter paper, 24 hours post introduction
# [16] = Nootkatone 0.5% in ethanol on filter paper, 48 hours post introduction
# [17] = Nootkatone 0.5% in ethanol on filter paper, 72 hours post introduction
# [18] = Nootkatone 1% in ethanol on filter paper, 30 minutes post introduction
# [19] = Nootkatone 1% in ethanol on filter paper, 1 hour post introduction
# [20] = Nootkatone 1% in ethanol on filter paper, 4 hours post introduction
# [21] = Nootkatone 1% in ethanol on filter paper, 8 hours post introduction
# [22] = Nootkatone 1% in ethanol on filter paper, 24 hours post introduction
# [23] = Nootkatone 1% in ethanol on filter paper, 48 hours post introduction
# [24] = Nootkatone 1% in ethanol on filter paper, 72 hours post introduction
smiles,measurement,setting,value
"C=C(C)[C@@H]1CCC2=CC(=O)C[C@@H](C)[C@]2(C)C1 [Nootkatone, nootkatone]",Means Affected,[1]; [4],24.0%
same,Means Dead,[1]; [4],0.0%
same,Means KD,[1]; [4],24.0%
same,Means Affected,[1]; [5],22.0%
same,Means Dead,[1]; [5],0.0%
same,Means KD,[1]; [5],22.0%
same,Means Affected,[1]; [6],32.2%
same,Means Dead,[1]; [6],0.0%
same,Means KD,[1]; [6],32.2%
same,Means Affected,[1]; [7],18.0%
same,Means Dead,[1]; [7],0.0%
same,Means KD,[1]; [7],18.0%
same,Means Affected,[1]; [8],26.2%
same,Means Dead,[1]; [8],12.2%
same,Means KD,[1]; [8],14.0%
same,Means Affected,[1]; [9],75.6%
same,Means Dead,[1]; [9],61.3%
same,Means KD,[1]; [9],14.2%
same,Means Affected,[1]; [10],76.0%
same,Means Dead,[1]; [10],74.0%
same,Means KD,[1]; [10],2.0%
same,Means Affected,[1]; [11],0.0%
same,Means Dead,[1]; [11],0.0%
same,Means KD,[1]; [11],0.0%
same,Means Affected,[1]; [12],2.5%
same,Means Dead,[1]; [12],0.0%
same,Means KD,[1]; [12],2.5%
same,Means Affected,[1]; [13],4.0%
same,Means Dead,[1]; [13],0.0%
same,Means KD,[1]; [13],4.0%
same,Means Affected,[1]; [14],4.0%
same,Means Dead,[1]; [14],0.0%
same,Means KD,[1]; [14],4.0%
same,Means Affected,[1]; [15],29.0%
same,Means Dead,[1]; [15],10.5%
same,Means KD,[1]; [15],18.5%
same,Means Affected,[1]; [16],72.0%
same,Means Dead,[1]; [16],49.0%
same,Means KD,[1]; [16],23.0%
same,Means Affected,[1]; [17],82.0%
same,Means Dead,[1]; [17],82%
same,Means KD,[1]; [17],0.0%
same,Means Affected,[1]; [18],2.2%
same,Means Dead,[1]; [18],0.0%
same,Means KD,[1]; [18],2.2%
same,Means Affected,[1]; [19],52.2%
same,Means Dead,[1]; [19],0.0%
same,Means KD,[1]; [19],52.2%
same,Means Affected,[1]; [20],83.7%
same,Means Dead,[1]; [20],0.0%
same,Means KD,[1]; [20],83.7%
same,Means Affected,[1]; [21],92.0%
same,Means Dead,[1]; [21],13.1%
same,Means KD,[1]; [21],78.9%
same,Means Affected,[1]; [22],100.0%
same,Means Dead,[1]; [22],97.8%
same,Means KD,[1]; [22],2.2%
same,Means Affected,[1]; [23],100.0%
same,Means Dead,[1]; [23],100.0%
same,Means KD,[1]; [23],0.0%
same,Means Affected,[1]; [24],100.0%
same,Means Dead,[1]; [24],100%
same,Means KD,[1]; [24],0.0%
same,Means Affected,[2]; [4],17.8%
same,Means Dead,[2]; [4],17.8%
same,Means KD,[2]; [4],0.0%
same,Means Affected,[2]; [5],20.0%
same,Means Dead,[2]; [5],20.0%
same,Means KD,[2]; [5],0.0%
same,Means Affected,[2]; [6],20.0%
same,Means Dead,[2]; [6],20.0%
same,Means KD,[2]; [6],0.0%
same,Means Affected,[2]; [7],17.8%
same,Means Dead,[2]; [7],15.6%
same,Means KD,[2]; [7],2.2%
same,Means Affected,[2]; [8],17.8%
same,Means Dead,[2]; [8],13.3%
same,Means KD,[2]; [8],4.4%
same,Means Affected,[2]; [9],17.6%
same,Means Dead,[2]; [9],15.6%
same,Means KD,[2]; [9],2.0%
same,Means Affected,[2]; [10],26.0%
same,Means Dead,[2]; [10],17.6%
same,Means KD,[2]; [10],8.4%
same,Means Affected,[2]; [11],0.0%
same,Means Dead,[2]; [11],0.0%
same,Means KD,[2]; [11],0.0%
same,Means Affected,[2]; [12],0.0%
same,Means Dead,[2]; [12],0.0%
same,Means KD,[2]; [12],0.0%
same,Means Affected,[2]; [13],5.3%
same,Means Dead,[2]; [13],0.0%
same,Means KD,[2]; [13],5.3%
same,Means Affected,[2]; [14],29.9%
same,Means Dead,[2]; [14],0.0%
same,Means KD,[2]; [14],29.9%
same,Means Affected,[2]; [15],83.1%
same,Means Dead,[2]; [15],22.5%
same,Means KD,[2]; [15],60.6%
same,Means Affected,[2]; [16],87.1%
same,Means Dead,[2]; [16],72.0%
same,Means KD,[2]; [16],15.1%
same,Means Affected,[2]; [17],100.0%
same,Means Dead,[2]; [17],92% and 92.5%
same,Means KD,[2]; [17],7.5%
same,Means Affected,[2]; [18],0.0%
same,Means Dead,[2]; [18],0.0%
same,Means KD,[2]; [18],0.0%
same,Means Affected,[2]; [19],1.8%
same,Means Dead,[2]; [19],0.0%
same,Means KD,[2]; [19],1.8%
same,Means Affected,[2]; [20],46.9%
same,Means Dead,[2]; [20],0.0%
same,Means KD,[2]; [20],46.9%
same,Means Affected,[2]; [21],80.4%
same,Means Dead,[2]; [21],0.0%
same,Means KD,[2]; [21],80.4%
same,Means Affected,[2]; [22],84.0%
same,Means Dead,[2]; [22],65.5%
same,Means KD,[2]; [22],18.5%
same,Means Affected,[2]; [23],90.0%
same,Means Dead,[2]; [23],80.4%
same,Means KD,[2]; [23],9.6%
same,Means Affected,[2]; [24],94.0%
same,Means Dead,[2]; [24],92%
same,Means KD,[2]; [24],2.0%
same,Time required for greater than 90% killing,[3],24 h
same,Means Affected,[3]; 30 minutes post introduction,100.0%
same,Means Dead,[3]; 30 minutes post introduction,0.0%
same,Means KD,[3]; 30 minutes post introduction,100.0%
same,Means Affected,[3]; 1 hour post introduction,100.0%
same,Means Dead,[3]; 1 hour post introduction,1.8%
same,Means KD,[3]; 1 hour post introduction,98.2%
same,Means Affected,[3]; 4 hours post introduction,100.0%
same,Means Dead,[3]; 4 hours post introduction,78.7%
same,Means KD,[3]; 4 hours post introduction,21.3%
same,Means Affected,[3]; 24 hours post introduction,100.0%
same,Means Dead,[3]; 24 hours post introduction,100%
same,Means KD,[3]; 24 hours post introduction,0.0%
same,Means Dead,"[3]; 24 hours post introduction, listed as nootkatone",100%
